Seven molecules from patent publication US20200108043A1, “COMPOUNDS AND COMPOSITIONS FOR EXTENDING LIFESPAN OF A SUBJECT” (YALE UNIVERSITY, priority 2017, published 2020) can be followed below.

In one data set the test system is S. cerevisiae. The data set is classed as cell-based. The settings on record: for lifespan of yeast cells (Replicator validation): 10 μM, supplied to young yeast cells throughout lifespan, vs untreated control. The protocol:
To obtain the single-cell level data for the age and generation-durations of replicatively aging mother cells, data reported in Liu, P., et al., Cell Rep. 634-644 (2015) was re-analyzed. The data was collected in the same media condition (CSM 2% glucose) as reported elsewhere herein. Cells were grown for ˜24 hours in CSM 2% glucose prior to loading to the microfluidic device. Once cells were loaded, media was swapped to provide CSM 2% glucose control media (untreated), media containing DMSO as a vehicle control (American Bio AB00435), media containing 10 μM terreic acid (Sigma SML0480), media containing 10 μM mycophenolic acid (Sigma M5255), or media containing another compound at the indicated concentration. An automated microscope was used to track […], and replicative lifespan was later determined by counting the number of daughters produced before death. In the case of compound validation, only newborn cells were included in the lifespan experiment. To compare the replicative lifespan of labeled and unlabeled cells, only cells that were present within the traps at the start of the experiment were included. For these experiments, cells were loaded to the microfluidic device at an increased rate of 100 μL/min to increase the number of trapped mother cells. Green fluorescent images were also taken at the start of the experiment to confirm that the cells were visibly labeled.
Differences in lifespan characteristics were assessed through Log-Rank test using MATLAB with a cut-off value of P=0.05. The script for Log-Rank test was downloaded from MATLAB. Differences in proteasome activity were assessed using the unpaired, two-tailed, parametric t-test function of the GraphPad Prism software.
The Longevity Placement Test (LPT) was designed as a mutually exclusive, collectively exhaustive test to determine the relationship of a longevity intervention to a known genetic regulator of lifespan. For a given intervention that extends lifespan, any of three possible relationships may exist relative to a known genetic regulator of lifespan. (1) The intervention may act to extend lifespan independently from the known regulator. (2) The […] may act downstream from the known regulator, converging on a single component of the known regulator's lifespan pathway. (3) The intervention may act upstream from or upon the known regulator, ultimately modulating lifespan through the genetic regulator.
In Step 1 of the LPT, the longevity intervention is applied to a strain in which a genetic regulator of lifespan is deleted. In the event that lifespan extension from the longevity intervention is observed in this background, only possibilities (1) and (2) above remain valid (FIG. 7B). If no lifespan extension is observed, then possibilities (2) and (3) remain valid. Possibility (2) cannot be ruled out in this step, since non-saturating action by the genetic regulator could leave room for lifespan extension by the longevity intervention, while saturating action would preclude it.
In Step 2 of the LPT, an epistatic agent, which prevents lifespan extension from the longevity agent, is applied to a strain in which some upstream member of the genetic regulator's lifespan pathway has been modified to extend lifespan. This step differentiates possibility (2) from the remaining possibility after Step 1. In the event that lifespan extension from the genetic regulator's pathway is suppressed by the epistatic agent, this determines that possibility (2) is correct. In the event that no epistasis is observed, the remaining possibility, (1) or (3), is correct (FIG. 7C).

The target in another data set is T1, proteasome (Saccharomyces cerevisiae, UniProt P30656).
T1 construct: with 50 μg of total protein in 200 μL of lysis buffer; endogenous in cells; host or cells: S. cerevisiae BY4741 wild-type or ΔUBR2 cells, glass-bead lysate (total protein extract)
Briefly: Proteasome assay with fluorogenic substrate Suc-LLVY-AMC on yeast protein extracts. The class given is biochemical. The protocol:
For protein extraction, 50 mL of cells were grown for 18 hours to an OD600 of approximately 0.8, then transferred to a 50 mL conical tube and centrifuged at 4255×g for 5 minutes at room temperature. The supernatant was discarded, and the cells were re-suspended in 150 μL of cold lysis buffer (50 mM Tris-HCl, pH 7.5, 0.5 mM EDTA, 5 mM MgCl2, with complete ULTRA mini protease inhibitor tablets, EDTA free) and transferred to a 1.5 mL tube. A ¼ volume of 500-750 μm glass beads (Acros Organics 397641000) was added to each tube. For 10 rounds, the tubes were chilled in ice water for 1 minute, then vortexed at maximum speed for 30 seconds to physically rupture the cells, and returned to the ice water. Samples were then spun for 3 minutes at 2500×g and 4° C., and the supernatant was transferred to a fresh tube. The solution was further clarified by centrifugation at 8000×g for 10 minutes at 4° C., and the supernatant was transferred to a fresh tube. Protein concentration was measured using a Nanodrop measuring the absorbance of the sample at 280 nm.
The proteasome assay used was described in Kruegel, et al. PLoS Genet. 7, (2011). The assay was performed in a 96-well clear-bottom plate (Costar 3603) with 50 μg of total protein in 200 μL of lysis buffer. The fluorogenic proteasome substrate Suc-LLVY-AMC (Bachem 1-1395) was added to a final concentration of 100 μM. Fluorescence intensity with an excitation wavelength of 380 nm and an emission wavelength of 460 nm was recorded at 5-minute intervals using a Neo2 plate reader (BioTek) set to mix constantly and maintain 30° C. Negative control reactions were performed in the presence of 50 μM MG132 (Sigma 474787), a proteasome inhibitor.

Another data set has as its system Saccharomyces cerevisiae. Briefly: High-Life (High throughput replicative Lifespan measurement) flow cytometry assay in MEP yeast. The settings on record: 10 μM, 24 hours in culture, 3-4 replicate wells, repeat of screen hits. The class given is cell-based. The protocol:
Cells were labeled with NHS-fluorescein as described above, then diluted to 20 cells/μL in media. 80 μL/well was aliquoted to 384-well plates, which were covered with a breathable membrane and placed on a shaker platform in a humidified incubator. After 3 hours, the plates were removed from the incubator and each well was treated with 20 μL pre-warmed, 30° C. 5 μM β-estradiol in media. In the case of ibuprofen or compound-treated wells, the compound was diluted in this volume at a 5× concentration to achieve a final concentration of 10 μM, or 100 μM for ibuprofen. The plates were then returned to the incubator. At indicated times, one plate was removed from the incubator and placed on an autosampler cooled to 8° C. attached to a Stratedigm flow cytometer. The cytometer was set to automatically add and mix 20 μL of aqueous solution containing 60 μg/mL CF405M-WGA (Biotium 29028) and propidium iodide (Sigma P4864) prior to acquiring 80 μL of sample for each well.
In order to test the lifespan of model organisms on both a large-scale and with quick turn-around, a massively multiplexed method was developed to measure replicative lifespan in the short-lived model organisms Saccharomyces cerevisiae. The protocol uses green-fluorescent labeling to identify progenitor cells, red-fluorescent labeling to differentiate non-viable cells, and blue-fluorescent labeling of bud scars to determine replicative age (FIG. 1). Each parameter is measured using a flow cytometer.
To achieve high throughput, the measurement system was automated, and the assay was performed in 384-well plates. The assay was performed using an autosampler-equipped flow cytometer, in a volume of 100 μL. Growth of even a single cell and its progeny in such a small volume will result in nutrient starvation before the natural replicative lifespan is exhausted; therefore to circumvent this issue, High-Life experiments were performed in the background of the Mother Enrichment Program (MEP) (Lindstrom and Gottschling, Genetics. 2009 October; 183(2):413-22). MEP strains express a CRE recombinase fused to an estrogen-binding domain for only a short time after birth. In the presence of β-estradiol, the recombinase translocates to the nucleus where it can excise two essential genes that have been modified to contain the exogenous LoxP sequence. Addition of β-estradiol to the media thus renders newborn daughters inviable without affecting existing mother cells, preventing exponential growth of the cell population and nutrient depletion (FIG. 2A).
The High-Life method was then tested to determine if it was suitable to screening for compounds that extend replicative lifespan. […] The effect of these compounds on High-Life readings was assayed after 24 hours in culture at 10 μM concentration. As a positive control, ibuprofen was used.

For a further data set, the system named is C. elegans. Briefly: Roundworm (C. elegans) lifespan extension. The data set is classed as in vivo, Caenorhabditis elegans. The settings on record: 10 μM in NGM plates, treated for duration of lifespan, vs control. The protocol: Synchronized animals were obtained using the egg-laying method, allowing young […] eggs for 4 hours on bacteria-seeded plates. For each treatment group, 120 synchronized day-1 adults were used. All experiments were carried out at 20° C. Treatment groups were blinded. Nematode growth media (NGM) plates were made for each treatment group: Negative control (DMSO), Mycophenolic Acid (10 μM in DMSO), and Terreic Acid (10 μM in DMSO). The compounds were added to NGM media before pouring the plates. The plates were then dried overnight before moving them to 4° C. to prevent degradation of the compounds. Plates were seeded with 100 μL of 10× concentrated OP50 E. coli, and dried overnight at room temperature. Plates were UV treated with a UVP CL-1000 Ultraviolet Crosslinker, run twice on the energy setting ‘9999’ for about 5 minutes each run. Worms were transferred to new plates every 2-4 days. Viability was scored every day, with death determined by lack of response to a platinum wire. Missing worms, or those that died due to internal hatching were censored.

“Also recorded” adds a separate entry of the source. Counter-ions that a name gives are not always drawn. Residues, ends and D or L forms follow the SMILES beside them. *: point of attachment. Cbz = O=C(OCc1ccccc1)*

`Nc1nc(=O)c2c([nH]1)NCC(CNc1ccc(C(=O)N[C@@H](CCC(=O)O)C(=O)O)cc1)N2C=O` (mixture of isomers) [folinic acid]: the “suppression of the longevity effect of proguanil” value in the data set with S. cerevisiae (10 μg/mL folinic acid with 10 μM proguanil, Replicator device) is on record as “able to suppress the longevity effect of proguanil”.

For `CC(C)C[C@@H](C=O)NC(=O)[C@H](CC(C)C)NC(=O)[C@H](CC(C)C)NC(=O)OCc1ccccc1` [MG-132] (Cbz-Leu-Leu-Leu-aldehyde), the “rate of fluorescence increase in proteasome assay (negative control)” value on proteasome (50 μM MG132) was “low rate of fluorescence increase”.

Take `N=C(N)N/N=C/c1c(Cl)cccc1Cl` [guanabenz acetate]: in the data set with S. cerevisiae, the “lifespan of yeast cells (Replicator validation)” value is on record as “extend the lifespan”. The “average High-Life readings (progenitor fraction viable vs CF405M intensity) relative to controls” value with Saccharomyces cerevisiae was “at least slightly above controls”.

Turning to `Nc1nc2nc[nH]c2c(=O)[nH]1` [guanine], the “reversal of lifespan extension conferred by SIR2 overexpression (LPT step 2)” value in the data set on S. cerevisiae (SIR2 overexpression, guanine as epistatic agent) is on record as “did not reverse the lifespan extension”. Further, the “suppression of lifespan extension in ΔHXK2 strain (LPT step 2)” value with S. cerevisiae (ΔHXK2 strain, guanine as epistatic agent) was “did not suppress lifespan extension”. Besides, the “suppression of lifespan extension in ΔTOR1 strain (LPT step 2)” value in the data set on S. cerevisiae (ΔTOR1 strain, guanine as epistatic agent) was “did not suppress lifespan extension”. In the data set on S. cerevisiae (ΔUBR2 strain, guanine supplementation), the “suppression of lifespan extension from UBR2 deletion (LPT step 2)” value is recorded as “partially suppressed lifespan extension”. In addition, the “proteasome activity in ΔUBR2 cells” value on proteasome (ΔUBR2 cells, presence vs absence of guanine) is reported as “did not alter proteasome activity”.

Turning to `O=[N+]([O-])c1ccc(O)c2ncccc12` [nitroxoline, 8-hydroxy-5-nitroquinoline], the “toxicity in Replicator RLS experiment” value in the data set on S. cerevisiae (10 μM compound) was “toxic and caused most cells to arrest immediately”. In addition, in the data set on Saccharomyces cerevisiae, the “average High-Life readings (progenitor fraction viable vs CF405M intensity) relative to controls” value was “at least slightly above controls”.

As to `[H]/N=C(\N/C(=N/[H])Nc1ccc(Cl)cc1)NC(C)C` [proguanil hydrochloride], the “lifespan of yeast cells (Replicator validation)” value in the data set with S. cerevisiae was “extend the lifespan”. The “average High-Life readings (progenitor fraction viable vs CF405M intensity) relative to controls” value in the data set with Saccharomyces cerevisiae is reported as “at least slightly above controls”.

Take `CC1=C(O)C(=O)[C@@H]2O[C@@H]2C1=O` [terreic acid]: the “extension of mean RLS” value in the data set on S. cerevisiae (10 μM compound, wild-type haploid cells, Replicator device) stood at 15%. In addition, in the data set with C. elegans, the “lifespan of C. elegans” value is “measurable extension of lifespan; also recorded: statistically significant lifespan extension”. The “average High-Life readings (progenitor fraction viable vs CF405M intensity) relative to controls” value in the data set with Saccharomyces cerevisiae is listed as “at least slightly above controls”.
